Results taken from patent US20240400604A1, “NUCLEOSIDE TRIPHOSPHATE PHOTOAFFINITY PROBE, METHOD FOR PREPARING SAME, AND APPLICATIONS THEREOF” (SHANDONG UNIVERSITY, priority 2023, published 2024).

Assays:
[1] = test system: GTP-binding proteins in HEK 293T cell lysates; experiment: In-gel fluorescence imaging of HEK 293T cell lysate labeled with the GTP probes
Method: Appropriate amount cells were incubated on ice for 30 min in 1% lysis buffer (1% Triton X-100, 50 mM HEPES (pH 7.4), 150 mM NaCl, supplemented with phosphatase inhibitor A, phosphatase inhibitor B, and protease inhibitor right before use) at 5-10 times the cell volume. Vortexing for 5 seconds every 10 minutes. The cell lysates were centrifuged at 12,000 rpm at 4° C. for 30 min, and the supernatants were passed through an Amersham NAP-5 column to remove endogenous nucleosides. The proteins were quantified using a Bradford protein assay kit. Approximately 100 μg protein was diluted with 0.1% lysis buffer (0.1% Triton X-100, 50 mM HEPES, 150 mM sodium chloride). To the solution was added 1 mM magnesium chloride, the GTP probe and competitors to designated concentrations. The final volume for the reaction was 100 μL and the final protein concentration was […]. After incubated on ice, the solution was irradiated with 365-nm UV light for 30 min. To the solution were added freshly prepared tris-(2-carboxyethyl)phosphine (TCEP) until its concentration reached 1 mM, and a CuAAC reaction mixture to reach a final concentration of 1 mM CuSO4, 0.1 mM tris[(1-benzyl-1H-1,2,3-triazol-4-yl)methyl]amine (TBTA), and 0.1 mM rhodamine β-PEG3-azide. The mixture was incubated at room temperature for 2 hrs and then precipitated in a solution of chloroform: methanol: water (4:3:1, v/v). After washing with cold methanol and air dried, the protein pellet was dissolved in 30 μL 4% SDS buffer (4% SDS, 50 mM HEPES (pH 7.4), 150 mM NaCl, 50 mM Trolamine). The protein concentration was determined using a BCA protein assay kit. A solution of approximately 20 μg proteins was added 4×loading buffer (0.25M Trometamol, pH=6.8, 4% SDS, 40% Glycerol, 0.02% bromophenol blue, add 200 μL 2-Mercaptoethanol to 800 μL buffer right before use), boiled at 95° C. for 5 min and loaded onto an SDS-PAGE gel (4% stacking gel, 10% separating gel). Then perform SDS-PAGE separation at a constant voltage of 90 V for about 110 minutes. At the end of electrophoresis, cut the separation gel and imaged with an Amersham Imager 600 (GE Healthcare) at 520 nm. The gel was then stained with Coomassie Brilliant Blue staining solution (0.1% Coomassie brilliant blue, 10% acetic acid, 50% methanol) for 30 min and destained with destaining solution (10% acetic acid, 30% methanol) to remove background color.

[2] = test system: GTP-binding proteins in HEK 293T cell lysates; experiment: Proteomic LC-MS/MS analysis of HEK 293T cell lysate labeled with GTP probes; parameters: species or system human
Method: Under optimized conditions, HEK 293T cell lysates were labeled using the GTP photoaffinity probes. Peptide samples were prepared via the On-Beads enzymatic digestion method for proteomic study. Approximately 1 mg of proteins was labeled with 0.1 mM GTP probe and irradiated with 365-nm UV light for 30 min. To the solution were added freshly prepared tris-(2-carboxyethyl)phosphine (TCEP) until its concentration reached 1 mM, and a CuAAC reaction mixture to reach a final concentration of 1 mM CuSO4, 0.1 mM tris[(1-benzyl-1H-1,2,3-triazol-4-yl)methyl]amine (TBTA), and 0.5 mM biotin-PEG3-azide (for GTP-O probe labeled samples), or 0.5 mM biotin-DADPS-azide (for GTP-N probe labeled samples). The mixture was vortexed at room temperature for 2 hours and then precipitated in ice-cold methanol overnight.
The precipitated proteins were dissolved in 100 μL 4% SDS buffer (4% SDS, 150 mM NaCl, 50 mM HEPES, pH=7.4), and diluted with 900 μL SDS-free HEPES buffer (150 mM NaCl, 50 mM HEPES, pH=7.4). High-capacity streptavidin beads (50 μL per sample) were washed three times with 20 times volume of wash buffer (150 mM sodium chloride, 50 mM HEPES, pH=7.4) before adding to the samples. After incubation on a rotary shaker at room temperature for 2 hours, non-specifically bound proteins were washed away in a centrifugal filtration column using 1× PBS containing 1% SDS, 10× PBS, 1× PBS, water, and 50 mM ammonium bicarbonate solution with 8 M urea, each wash using 1 mL of solution for five times. The beads were transferred to a centrifuge tube using 50 mM ammonium bicarbonate solution containing 8 M urea and resuspended with 500 μL of this solution. The disulfide bonds were reduced by adding 20 mM TCEP and incubating at 37° C. for 1 hour, and then alkylated with 50 mM iodacetamide at room temperature in the dark for 30 minutes. After centrifugation at 3000 rpm for 2 minutes, the supernatant was gently removed. The beads were washed with 25 mM ammonium bicarbonate three times, resuspended in 100 μL 25 mM ammonium bicarbonate, and incubated with 1 μg of MS-grade trypsin (1 μg/μL) at 37° C. for 18 hrs.
The beads were washed with 200 μL of 25 mM ammonium bicarbonate solution, then centrifuged at 12000 rpm for 2 minutes to collect the supernatant. The procedure was repeated 6 times, and the supernatants were combined to obtain sample 1 (peptides without probe modification). For GTP-O probe labeled samples, the beads were resuspended in 200 μL of 70% acetonitrile solution containing 1% trifluoroacetic acid, vortexed for 5 minutes, then centrifuged at 12000 rpm for 2 minutes to collect the supernatant. The procedure was repeated 5 times, and the supernatants were combined to obtain sample 2 (containing probe-modified peptides). For GTP-N probe labeled samples, the beads were resuspended in 100 μL of 10% formic acid, incubated on a rotary shaker at room temperature for 30 minutes, then centrifuged at 12000 rpm for 2 minutes to collect the supernatant. The procedure was repeated 3 times, and the supernatants were combined. Trifluoroacetic acid was added to a final concentration of 1%, and incubated at 37° C. for 30 minutes to obtain sample 2. The peptide solutions were dried with a centrifugal concentrator and desalted using C18 tips, then frozen at −80° C. until LC-MS/MS detection. Samples were dissolved in 20 μL of pure water, 4 μL of sample 1 and 8 μL of sample 2 were injected for analysis.
An EASY-nLC 1200 liquid chromatography coupled with a Q-Exactive Orbitrap mass spectrometer was employed for LC-MS/MS analysis. A homemade C18 capillary column (inner diameter 75 μm, column length 18 cm) packed with Reprosil-Pur120 C18-AQ (Dr. maisch, particle size […]) was utilized as the separation column. The precolumn (inner diameter 150 μm, column length 4 cm) was packed with Reprosil-Pur120 C18-AQ (Dr. maisch, particle size 5 μm,). The mobile phase A was 0.1% formic acid, while mobile phase B was 0.1% formic acid in 80% acetonitrile, and the flow rate was 300 nL/min. […]

[3] = Stability analysis of the probes under three pH conditions with HPLC; format: physicochemical; conditions: acidic condition with trifluoroacetic acid (pH=3), 0.4 mM probe, 37° C.
Method: Probes were incubated with 0.4 mM final concentration in different buffer at 37° C. for different time, and 10 μL of solution was taken out at each time point for HPLC analysis. A analytical column (Welch, Ultimate XB-C18, 5 μm, 4.6×250 mm) was used for the analysis, and untreated probes were used as controls. The mobile phase A was 50 mM […] (TEAA) buffer (pH=8), the mobile phase B was 50 mM TEAA in 30% ACN, the flow rate was 1 mL/min, the detection wavelength was 252 nm, and the column temperature was 30° C. Gradient elution conditions were as follows: 0-5 minutes, 5% B; 5-10 minutes, 5-30% B; 10-30 minutes, 30-40% B; 30-35 minutes, 40-100% B; 35-40 minutes, 100% B; 45-50 minutes, 5% B.

[4] = three biological replicates, 0.1 mM probe, control probe = GTP-ctrl probe

C#CCCC1(CCNP(=O)(O)OP(=O)(O)OP(=O)(O)OC[C@H]2O[C@@H](n3cnc4c(=O)[nH]c(N)nc43)C(O)[C@H]2O)N=N1 (stereo partly shown) [GTP-N probe]
protein labeling (in-gel fluorescence) ([1]; 0.1 mM probe, 1 mM MgCl2, FIG. 10a): stronger protein labeling compared to the GTP-O probe | probe concentration at which cell lysate is effectively labeled ([1]; FIG. 9a (GTP-N probe), 365 nm UV, in-gel fluorescence): 50 µM | probe-modified sites on labeled proteins ([2]; LC-MS/MS of sample 2 (probe-modified peptides)): several modified peptides of GTP-binding proteins were identified | selectivity for annotated GTP-binding proteins ([2]; competition with GTP at 10 times probe concentration, LFQ, three biological replicates): better selectivity than the GTP-O probe | GTP-binding proteins identified [2, 4]: 115 | total proteins identified [2, 4]: 2461 | time after which probe decomposed [3]: 0.5 h
